Data from US9758491B2, “Molecules having pesticidal utility, and intermediates, compositions, and processes, related thereto” (priority 2015, dated 2017).

Assays:
Type in all cases: in vivo
[1] = test system: Beet Armyworm (Spodoptera exigua, LAPHEG); experiment: Bioassay on Beet Armyworm (BAW), 128-well diet tray assay; conditions: 168 h, 50 μg/cm^2 on artificial diet, second instar larvae, 25° C., five to seven days, average of eight wells, read-out: BAW rating, % Control (or Mortality)
Protocol: (§1) Certain molecules disclosed in this document were tested against BAW and CL using procedures described in the following examples. In the reporting of the results, the “BAW & CL Rating Table” was used (See Table Section).
Bioassays on BAW were conducted using a 128-well diet tray assay. One to five second instar BAW larvae were placed in each well (3 mL) of the diet tray that had been previously filled with 1 mL of artificial diet to which 50 μg/cm^2 of the test molecule (dissolved in 50 μL of 90:10 acetone-water mixture) had been applied (to each of eight wells) and then allowed to dry. Trays were covered with a clear self-adhesive cover, vented to allow gas exchange, and held at 25° C., 14:10 light-dark for five to seven days. Percent mortality was recorded for the larvae in each well; activity in the eight wells was then averaged. The results are indicated in the table entitled “Table ABC: Biological Results” (See Table Section).

[2] = test system: Cabbage Looper (Trichoplusia ni, TRIPNI); experiment: Bioassay on Cabbage Looper (CL), 128-well diet tray assay; conditions: 168 h, 50 μg/cm^2 on artificial diet, second instar larvae, 25° C., five to seven days, average of eight wells, read-out: CL rating, % Control (or Mortality)
Protocol: as §1
Bioassays on CL were conducted using a 128-well diet tray assay. One to five second instar CL larvae were placed in each well (3 mL) of the diet tray that had been previously filled with 1 mL of artificial diet to which 50 μg/cm^2 of the test molecule (dissolved in 50 μL of 90:10 acetone-water mixture) had been applied (to each of eight wells) and then allowed to dry. Trays were covered with a clear self-adhesive cover, vented to allow gas exchange, and held at 25° C., 14:10 light-dark for five to seven days. Percent mortality was recorded for the larvae in each well; activity in the eight wells was then averaged. The results are indicated in the table entitled “Table ABC: Biological Results” (See Table Section).

[3] = test system: Yellow Fever Mosquito (Aedes aegypti, AEDSAE); experiment: Bioassay on Yellow Fever Mosquito (YFM) larvae, 96-well plate; conditions: 4000 ppm DMSO master solution diluted, about 1 day-old larvae, room temperature, scored after 3 days
Protocol: Certain molecules disclosed in this document were tested against YFM using procedures described in the following paragraph. In the reporting of the results, the “YFM Rating Table” was used (See Table Section).
Master plates containing 400 μg of a molecule dissolved in 100 μL of dimethyl sulfoxide (DMSO) (equivalent to a 4000 ppm solution) are used. A master plate of assembled molecules contains 15 μL per well. To this plate, 135 μL of a 90:10 water/acetone mixture is added to each well. A robot (Biomek® NXP Laboratory Automation Workstation) is programmed to dispense 15 μL aspirations from the master plate into an empty 96-well shallow plate (“daughter” plate). There are 6 reps (“daughter” plates) created per master. The created “daughter” plates are then immediately infested with YFM larvae.
The day before plates are to be treated, mosquito eggs are placed in Millipore water containing liver powder to begin hatching (4 g into 400 mL). After the “daughter” plates are created using the robot, they are infested with 220 μL of the liver powder/larval mosquito mixture (about 1 day-old larvae). After plates are infested with mosquito larvae, a non-evaporative lid is used to cover the plate to reduce drying. Plates are held at room temperature for 3 days prior to grading. After 3 days, each well is observed and scored based on mortality. The results are indicated in the table entitled “Table ABC: Biological Results” (See Table Section).

Row | SMILES | mortality at 50 µg/cm2 [1] [%] | mortality at 50 µg/cm2 [2] [%] | YFM rating, % Control (or Mortality) [3]
1 | N/C(=N\C(=O)Nc1ccc(-c2ncn(-c3ccc(OC(F)(F)F)cc3)n2)cc1)Nc1ccccc1-c1ccccc1 [F1, (1E)-1-[Amino-(2-phenylanilino)methylene]-3-[4-[1-[4-(trifluoromethoxy)phenyl]-1H-1,2,4-triazol-3-yl]phenyl]urea] | 50 to 100 | 50 to 100 | A (80-100)
2 | N/C(=N\C(=O)Nc1ccc(-c2ncn(-c3ccc(OC(F)(F)F)cc3)n2)cc1)Nc1ccccc1Cc1ccccc1 [F2, (1E)-1-[Amino-(2-benzylanilino)methylene]-3-[4-[1-[4-(trifluoromethoxy)phenyl]-1H-1,2,4-triazol-3-yl]phenyl]urea] | 50 to 100 | 50 to 100 | A (80-100)
3 | CCc1ccccc1N/C(N)=N/C(=O)Nc1ccc(-c2ncn(-c3ccc(OC(F)(F)F)cc3)n2)cc1 [F3, (1E)-1-[Amino-(2-ethylanilino)methylene]-3-[4-[1-[4-(trifluoromethoxy)phenyl]-1H-1,2,4-triazol-3-yl]phenyl]urea] | 50 to 100 | 50 to 100 | A (80-100)
4 | N/C(=N\C(=O)Nc1ccc(-c2ncn(-c3ccc(OC(F)(F)F)cc3)n2)cc1)Nc1ccccc1 [F4, (1E)-1-[amino(anilino)methylene]-3-[4-[1-[4-(trifluoromethoxy)phenyl]-1H-1,2,4-triazol-3-yl]phenyl]urea] | 50 to 100 | 50 to 100 | A (80-100)
5 | Cc1ccccc1N/C(N)=N/C(=O)Nc1ccc(-c2ncn(-c3ccc(OC(F)(F)F)cc3)n2)cc1 [F5, (1E)-1-[Amino-(2-methylanilino)methylene]-3-[4-[1-[4-(trifluoromethoxy)phenyl]-1H-1,2,4-triazol-3-yl]phenyl]urea] | 50 to 100 | 50 to 100 | A (80-100)
6 | CCCc1ccccc1N/C(N)=N/C(=O)Nc1ccc(-c2ncn(-c3ccc(OC(F)(F)F)cc3)n2)cc1 [F6, (1E)-1-[Amino-(2-propylanilino)methylene]-3-[4-[1-[4-(trifluoromethoxy)phenyl]-1H-1,2,4-triazol-3-yl]phenyl]urea] | 50 to 100 | 50 to 100 | A (80-100)
7 | Cc1ccc(C)c(N/C(N)=N/C(=O)Nc2ccc(-c3ncn(-c4ccc(OC(F)(F)F)cc4)n3)cc2)c1 [F7, (1E)-1-[Amino-(2,5-dimethylanilino)methylene]-3-[4-[1-[4-(trifluoromethoxy)phenyl]-1H-1,2,4-triazol-3-yl]phenyl]urea] | 50 to 100 | 50 to 100 | A (80-100)
8 | Cc1ccc(N/C(N)=N/C(=O)Nc2ccc(-c3ncn(-c4ccc(OC(F)(F)F)cc4)n3)cc2)c(C)c1 [F8, (1E)-1-[Amino-(2,4-dimethylanilino)methylene]-3-[4-[1-[4-(trifluoromethoxy)phenyl]-1H-1,2,4-triazol-3-yl]phenyl]urea] | 50 to 100 | 50 to 100 | A (80-100)
9 | COc1ccc(N/C(N)=N/C(=O)Nc2ccc(-c3ncn(-c4ccc(OC(F)(F)F)cc4)n3)cc2)c(C)c1 [F9, (1E)-1-[Amino-(4-methoxy-2-methyl-anilino)methylene]-3-[4-[1-[4-(trifluoromethoxy)phenyl]-1H-1,2,4-triazol-3-yl]phenyl]urea] | 50 to 100 | 50 to 100 | A (80-100)
10 | CC(C)c1ccccc1N/C(N)=N/C(=O)Nc1ccc(-c2ncn(-c3ccc(OC(F)(F)F)cc3)n2)cc1 [F10, (1E)-1-[Amino-(2-isopropylanilino)methylene]-3-[4-[1-[4-(trifluoromethoxy)phenyl]-1H-1,2,4-triazol-3-yl]phenyl]urea] | 50 to 100 | 50 to 100 | A (80-100)
11 | Cc1cccc(C)c1N/C(N)=N/C(=O)Nc1ccc(-c2ncn(-c3ccc(OC(F)(F)F)cc3)n2)cc1 [F11, (1E)-1-[amino-(2,6-dimethylanilino)methylene]-3-[4-[1-[4-(trifluoromethoxy)phenyl]-1H-1,2,4-triazol-3-yl]phenyl]urea] | 50 to 100 | – | –
12 | Cc1cc(Cl)ccc1N1CCN/C1=N\C(=O)Nc1ccc(-c2ncn(-c3ccc(OC(F)(F)F)cc3)n2)cc1 [F12, (E)-1-(1-(4-Chloro-2-methylphenyl)imidazolidin-2-ylidene)-3-(4-(1-(4-(trifluoromethoxy)phenyl)-1H-1,2,4-triazol-3-yl)phenyl)urea] | 0 to 50 | 50 to 100 | D (No activity noticed in this bioassay)
13 | Cc1ccc(F)cc1N1CCN/C1=N\C(=O)Nc1ccc(-c2ncn(-c3ccc(OC(F)(F)F)cc3)n2)cc1 [F13, (E)-1-(1-(5-Fluoro-2-methylphenyl)imidazolidin-2-ylidene)-3-(4-(1-(4-(trifluoromethoxy)phenyl)-1H-1,2,4-triazol-3-yl)phenyl)urea] | 50 to 100 | 50 to 100 | D (No activity noticed in this bioassay)
14 | CCc1ccccc1N1CCN/C1=N\C(=O)Nc1ccc(-c2ncn(-c3ccc(OC(F)(F)F)cc3)n2)cc1 [F14, (E)-1-(1-(2-Ethylphenyl)imidazolidin-2-ylidene)-3-(4-(1-(4-(trifluoromethoxy)phenyl)-1H-1,2,4-triazol-3-yl)phenyl)urea] | 50 to 100 | 50 to 100 | A (80-100)
15 | Cc1ccc(N2CCN/C2=N\C(=O)Nc2ccc(-c3ncn(-c4ccc(OC(F)(F)F)cc4)n3)cc2)c(C)c1 [F15, (E)-1-(1-(2.4-dimethylphenyl)imidazolidin-2-ylidene)-3-(4-(1-(4-(trifluoromethoxy)phenyl)-1H-1,2,4-triazol-3-yl)phenyl)urea] | 50 to 100 | 50 to 100 | A (80-100)
16 | O=C(/N=C1\NCCN1c1ccccc1)Nc1ccc(-c2ncn(-c3ccc(OC(F)(F)F)cc3)n2)cc1 [F16, (E)-1-(1-Phenylimidazolidin-2-ylidene)-3-(4-(1-(4-(trifluoromethoxy)phenyl)-1H-1,2,4-triazol-3-yl)phenyl)urea] | 50 to 100 | 50 to 100 | A (80-100)
17 | Cc1cc(C)c(N2CCN/C2=N\C(=O)Nc2ccc(-c3ncn(-c4ccc(OC(F)(F)F)cc4)n3)cc2)c(C)c1 [F17, (E)-1-(1-Mesitylimidazolidin-2-ylidene)-3-(4-(1-(4-(trifluoromethoxy)phenyl)-1H-1,2,4-triazol-3-yl)phenyl)urea] | 50 to 100 | 50 to 100 | A (80-100)
18 | COc1ccccc1N1CCN/C1=N\C(=O)Nc1ccc(-c2ncn(-c3ccc(OC(F)(F)F)cc3)n2)cc1 [F18, (E)-1-(1-(2-Methoxyphenyl)imidazolidin-2-ylidene)-3-(4-(1-(4-(trifluoromethoxy)phenyl)-1H-1,2,4-triazol-3-yl)phenyl)urea] | 50 to 100 | 50 to 100 | A (80-100)
19 | O=C(/N=C1\NCCN1c1ccccc1OC(F)(F)F)Nc1ccc(-c2ncn(-c3ccc(OC(F)(F)F)cc3)n2)cc1 [F19, (E)-1-(4-(1-(4-(Trifluoromethoxy)phenyl)-1H-1,2,4-triazol-3-yl)phenyl)-3-(1-(2-(trifluoromethoxy)phenyl)imidazolidin-2-ylidene)urea] | 0 to 50 | 50 to 100 | D (No activity noticed in this bioassay)
